Laboratory results reported in patent publication US20250353819A1, “ARYL HYDANTOIN COMPOUNDS AND METHODS OF USE” (priority 2022, published 2025).
Like-named read-outs stand apart in the source and are kept apart here.

Columns and labels:
CYP 2C19 = CYP 2C19 (Homo sapiens (Human), UniProt P33261); test: CYP inhibition in human liver microsomes, 2C19; assay type: in vitro ADME
[1] = Plasma protein binding, dog plasma; assay type: in vitro ADME; conditions: read-out: % bound (converted)
[2] = Mouse exposure / pharmacokinetic studies; assay type: in vivo, mice; conditions: for half-life / clearance: iv, 1 mg/kg
[3] = Stability in human cryopreserved hepatocytes; assay type: in vitro ADME
CYP 3A4 = CYP 3A4 (Homo sapiens (Human), UniProt P08684); test: CYP inhibition in human liver microsomes, 3A4
[4] = Stability in dog cryopreserved hepatocytes; assay type: in vitro ADME
CYP 2D6 = CYP 2D6 (Homo sapiens (Human), UniProt P10635); test: CYP inhibition in human liver microsomes, 2D6
[5] = Pharmacokinetics in male Sprague Dawley rats; assay type: in vivo, rat; conditions: rats, mean (n = 3); for half-life: read-out: Apparent t1/2 (converted)
Protocol: IV and oral formulations were prepared using the same method. On the day of dosing the solid compound was dissolved in DMSO prior to addition of a saline solution (0.9% w/v). The samples were then mixed using vortexing producing colourless solutions. The IV formulation was filtered through a 0.22 μm syringe filter prior to dosing and the oral formulation was dosed without filtration.
Samples of arterial blood were collected up to 168 h post-dose. Urine samples were not collected as animals were housed in bedded cages. Arterial blood was collected directly into borosilicate vials (at 4° C.) containing heparin as anticoagulant. Once collected, blood samples were centrifuged, supernatant plasma was removed and stored frozen (−80° C.) until analysis by LC-MS. A summary of the bioanalytical method and assay validation details is included in Tables 14 and 15.
Plasma concentration versus time data were analysed using non-compartmental methods (PKSolver Version 2.0). Standard calculations for each pharmacokinetic parameter are listed below.

[6] = In vitro metabolic stability, human liver microsomes; assay type: in vitro ADME; conditions: human liver microsomes; read-out: h CLint
Protocol: In Vitro Metabolic Stability. As described by Charman et al. (2020), metabolic stability assays were performed by incubating test compounds in liver microsomes at 37° C. and 0.4 mg/mL protein concentration. The metabolic reaction was initiated by the addition of an NADPH-regenerating system and quenched at various time points over a 60 min incubation period by the addition of acetonitrile containing diazepam as internal standard. Control samples (containing no NADPH) were included (and quenched at 2, 30 and 60 min) to monitor for potential degradation in the absence of cofactor.

[7] = Plasma protein binding, mouse plasma; assay type: in vitro ADME
[8] = Whole blood-to-plasma ratio, rat; assay type: in vitro ADME
Protocol: As part of the assessment of the IV pharmacokinetics, an additional blood sample was collected from each rat at 1 h post dose for the purposes of determining the whole blood-to-plasma (B/P) ratio. Arterial blood was collected into tubes containing heparin. The haematocrit was determined via centrifugation (13000×g for 4 min using a Clemets® Microhematocrit centrifuge and Safecap® Plain Self-sealing Mylar Wrapped capillary tubes), and values ranged from 41% to 42%. Each blood aliquot ([…]) was collected and matrix matched with an equivalent volume of blank plasma. The remainder of the blood sample was centrifuged and […] plasma aliquot was collected and matrix matched with an equivalent volume of blank blood. Samples were frozen on dry ice and stored at −80° C. until analysis by LC-MS.

[9] = mice, oral, mean dose 6.73 mg/kg
[10] = mice, oral, mean dose 13.5 mg/kg
[11] = mice, oral, mean dose 26.3 mg/kg
[12] = mice, oral, mean dose 55.6 mg/kg
[13] = mice, oral, mean dose 99.7 mg/kg

CYP 2C19, sequence (P33261 whole entry): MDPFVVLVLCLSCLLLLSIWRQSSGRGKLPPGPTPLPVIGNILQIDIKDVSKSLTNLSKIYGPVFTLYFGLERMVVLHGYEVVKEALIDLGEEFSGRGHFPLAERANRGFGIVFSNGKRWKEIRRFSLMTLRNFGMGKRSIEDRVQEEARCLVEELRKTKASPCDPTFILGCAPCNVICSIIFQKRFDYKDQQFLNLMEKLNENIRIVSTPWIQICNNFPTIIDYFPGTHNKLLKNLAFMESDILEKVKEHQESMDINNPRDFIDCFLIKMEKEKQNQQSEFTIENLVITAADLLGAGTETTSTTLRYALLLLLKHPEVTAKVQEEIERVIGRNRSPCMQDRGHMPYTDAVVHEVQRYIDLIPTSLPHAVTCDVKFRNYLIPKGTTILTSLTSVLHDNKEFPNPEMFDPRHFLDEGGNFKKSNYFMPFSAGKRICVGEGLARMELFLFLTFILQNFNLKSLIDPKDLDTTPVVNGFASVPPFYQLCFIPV
CYP 2D6, sequence (P10635 whole entry): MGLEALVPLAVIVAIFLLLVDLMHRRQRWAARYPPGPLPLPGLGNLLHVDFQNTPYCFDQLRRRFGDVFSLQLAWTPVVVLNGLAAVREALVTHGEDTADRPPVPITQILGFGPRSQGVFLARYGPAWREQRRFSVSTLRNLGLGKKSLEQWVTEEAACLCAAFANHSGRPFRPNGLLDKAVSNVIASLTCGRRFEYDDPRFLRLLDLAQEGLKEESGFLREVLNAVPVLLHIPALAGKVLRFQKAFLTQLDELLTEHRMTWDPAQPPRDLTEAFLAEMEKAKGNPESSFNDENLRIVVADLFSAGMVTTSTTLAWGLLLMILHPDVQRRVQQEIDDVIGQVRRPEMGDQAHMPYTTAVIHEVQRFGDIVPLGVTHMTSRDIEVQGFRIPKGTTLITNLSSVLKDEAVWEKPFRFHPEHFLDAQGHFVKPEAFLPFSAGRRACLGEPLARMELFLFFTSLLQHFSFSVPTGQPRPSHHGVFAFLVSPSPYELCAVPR
CYP 3A4, sequence (P08684 whole entry): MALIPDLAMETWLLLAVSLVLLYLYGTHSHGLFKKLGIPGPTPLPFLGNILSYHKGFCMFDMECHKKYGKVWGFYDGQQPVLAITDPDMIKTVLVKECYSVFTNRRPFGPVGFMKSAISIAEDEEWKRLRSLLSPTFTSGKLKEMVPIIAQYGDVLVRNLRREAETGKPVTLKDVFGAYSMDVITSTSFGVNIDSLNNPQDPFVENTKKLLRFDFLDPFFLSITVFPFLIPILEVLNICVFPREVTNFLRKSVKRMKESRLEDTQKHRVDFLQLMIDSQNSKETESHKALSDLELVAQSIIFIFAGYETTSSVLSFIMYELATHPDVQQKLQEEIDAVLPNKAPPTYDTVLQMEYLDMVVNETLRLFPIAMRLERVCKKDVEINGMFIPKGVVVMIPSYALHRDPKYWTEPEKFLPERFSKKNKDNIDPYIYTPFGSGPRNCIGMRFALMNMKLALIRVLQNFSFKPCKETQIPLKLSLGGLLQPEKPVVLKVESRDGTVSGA

[2H]C([2H])([2H])C1(C([2H])([2H])[2H])NC(=O)N(c2ccc(F)c(C(C)(F)F)c2)C1=O [Compound IE, 3-(3-(1,1-difluoroethyl)-4-fluorophenyl)-5,5-bis(methyl-d3)imidazolidine-2,4-dione]
IC50 (CYP 2C19; 2C19, read-out: CYP inhibition IC50): > 20 µM
CYP inhibition (CYP 2C19; CYP 2C19, concentrations up to 20 μM, human liver microsomes): did not inhibit
fraction unbound [1]: 0.32
half-life ([2]; male, Swiss outbred, mouse, in vivo, IV 1 mg/kg, mice, read-out: apparent half-life (converted)): 30 h
clearance ([2]; male, Swiss outbred, mouse, in vivo, IV 1 mg/kg, mice, read-out: blood clearance): 0.59 mL/min/kg
half-life ([2]; male, Swiss outbred, mouse, in vivo, mice, IV, mean dose 1.0 mg/kg, read-out: Apparent t1/2 (converted)): 38 h
clearance ([2]; male, Swiss outbred, mouse, in vivo, mice, IV, mean dose 1.0 mg/kg, read-out: Plasma CL): 0.491 mL/min/kg
bioavailability ([2]; male, Swiss outbred, mouse, in vivo, po, mice, all doses 6.25 to 100 mg/kg, read-out: apparent oral bioavailability): ≥ 80%
AUC(0-t) ([2]; male, Swiss outbred, mouse, in vivo, 100 mg/kg PO in mice, read-out: AUC0-last): 1800 µg·h/mL
Cmax ([2]; male, Swiss outbred, mouse, in vivo, 100 mg/kg PO in mice, read-out: Cmax): 41000 ng/mL
Vd ([2]; male, Swiss outbred, mouse, in vivo, IV 1 mg/kg, mice, read-out: volume of distribution): 1.59 L/kg
AUC(0-t) ([2]; male, Swiss outbred, mouse, in vivo, mice, IV, mean dose 1.0 mg/kg, read-out: Plasma AUC0-48 h): 28.2 µg·h/mL
AUC(0-inf) ([2]; male, Swiss outbred, mouse, in vivo, mice, IV, mean dose 1.0 mg/kg, read-out: Plasma AUC0-inf): 33.9 µg·h/mL
Tmax ([2]; male, Swiss outbred, mouse, in vivo, mice, oral, mean dose 6.73 mg/kg): 3 h
AUC(0-t) ([2]; male, Swiss outbred, mouse, in vivo, mice, oral, mean dose 6.73 mg/kg, read-out: Plasma AUC0-48 h): 145 µg·h/mL
Cmax ([2]; male, Swiss outbred, mouse, in vivo, mice, oral, mean dose 6.73 mg/kg, read-out: Plasma Cmax): 3760 ng/mL
Tmax ([2]; male, Swiss outbred, mouse, in vivo, mice, oral, mean dose 13.5 mg/kg): 7 h
AUC(0-t) ([2]; male, Swiss outbred, mouse, in vivo, mice, oral, mean dose 13.5 mg/kg, read-out: Plasma AUC0-48 h): 320 µg·h/mL
Cmax ([2]; male, Swiss outbred, mouse, in vivo, mice, oral, mean dose 13.5 mg/kg, read-out: Plasma Cmax): 8590 ng/mL
Tmax ([2]; male, Swiss outbred, mouse, in vivo, mice, oral, mean dose 26.3 mg/kg): 7 h
AUC(0-t) ([2]; male, Swiss outbred, mouse, in vivo, mice, oral, mean dose 26.3 mg/kg, read-out: Plasma AUC0-48 h): 607 µg·h/mL
Cmax ([2]; male, Swiss outbred, mouse, in vivo, mice, oral, mean dose 26.3 mg/kg, read-out: Plasma Cmax): 14400 ng/mL
Tmax ([2]; male, Swiss outbred, mouse, in vivo, mice, oral, mean dose 55.6 mg/kg): 3 h
AUC(0-t) ([2]; male, Swiss outbred, mouse, in vivo, mice, oral, mean dose 55.6 mg/kg, read-out: Plasma AUC0-48 h): 1130 µg·h/mL
Cmax ([2]; male, Swiss outbred, mouse, in vivo, mice, oral, mean dose 55.6 mg/kg, read-out: Plasma Cmax): 28200 ng/mL
Tmax ([2]; male, Swiss outbred, mouse, in vivo, mice, oral, mean dose 99.7 mg/kg): 7 h
AUC(0-t) ([2]; male, Swiss outbred, mouse, in vivo, mice, oral, mean dose 99.7 mg/kg, read-out: Plasma AUC0-48 h): 1800 µg·h/mL
Cmax ([2]; male, Swiss outbred, mouse, in vivo, mice, oral, mean dose 99.7 mg/kg, read-out: Plasma Cmax): 40500 ng/mL
PlasmaVSS ([2]; mice, IV, mean dose 1.0 mg/kg): 1.6 L/kg
Apparent BA [2, 9]: 76%
Plasma AUC0-48 h/Dose [2, 9]: 21.5 (μg*h/mL)/(mg/kg)
Plasma Cmax/Dose [2, 9]: 0.559 (μg/mL)/(mg/kg)
Apparent BA [2, 10]: 84%
Plasma AUC0-48 h/Dose [2, 10]: 23.8 (μg*h/mL)/(mg/kg)
Plasma Cmax/Dose [2, 10]: 0.638 (μg/mL)/(mg/kg)
Apparent BA [2, 11]: 82%
Plasma AUC0-48 h/Dose [2, 11]: 23.1 (μg*h/mL)/(mg/kg)
Plasma Cmax/Dose [2, 11]: 0.547 (μg/mL)/(mg/kg)
Apparent BA [2, 12]: 72%
Plasma AUC0-48 h/Dose [2, 12]: 20.4 (μg*h/mL)/(mg/kg)
Plasma Cmax/Dose [2, 12]: 0.507 (μg/mL)/(mg/kg)
Apparent BA [2, 13]: 64%
Plasma AUC0-48 h/Dose [2, 13]: 18.0 (μg*h/mL)/(mg/kg)
Plasma Cmax/Dose [2, 13]: 0.407 (μg/mL)/(mg/kg)
CLint [3]: <2 μL/min/10^6
hepatocyte CLint ([3]; read-out: in vitro CLint): < 2000 µL/min/1e6 cells
CYP inhibition (CYP 3A4; CYP 3A4, concentrations up to 20 μM, human liver microsomes): did not inhibit
IC50 (CYP 3A4; read-out: CYP inhibition IC50, 3A4* (tes/mid)): > 20 µM
CLint ([4]; Dog cryopreserved hepatocytes): <2 μL/min/10^6
hepatocyte CLint ([4]; dog cryopreserved hepatocytes, read-out: in vitro CLint): < 2000 µL/min/1e6 cells
CYP inhibition (CYP 2D6; CYP 2D6, concentrations up to 20 μM, human liver microsomes): did not inhibit
IC50 (CYP 2D6; read-out: CYP inhibition IC50, 2D6): > 20 µM
AUC ([5]; male, Sprague Dawley, rat, in vivo, iv, 0.9 mg/kg, IV 0.9 mg/kg, read-out: Plasma AUCIV): 31.7 µg·h/mL
clearance ([5]; male, Sprague Dawley, rat, in vivo, iv, 0.9 mg/kg, IV 0.9 mg/kg, read-out: Plasma CL): 0.476 mL/min/kg
Cmax ([5]; male, Sprague Dawley, rat, in vivo, po, 0.9 mg/kg, PO 0.9 mg/kg, read-out: Plasma Cmax): 440 ng/mL
Tmax ([5]; male, Sprague Dawley, rat, in vivo, po, 0.9 mg/kg, PO 0.9 mg/kg, read-out: Tmax): 11 h
half-life ([5]; male, Sprague Dawley, rat, in vivo, IV 0.9 mg/kg): 32 ± 2 h
half-life ([5]; male, Sprague Dawley, rat, in vivo, PO 0.9 mg/kg): 39 h
Apparent t1/2 ([5]; IV 0.9 mg/kg): 32 h
PlasmaVSS ([5]; IV 0.9 mg/kg): 1.69 L/kg
BA ([5]; PO 0.9 mg/kg): 113%
Plasma AUCoral ([5]; PO 0.9 mg/kg): 36.0 H*ug/mL
microsomal CLint [6]: < 7 µL/min/mg
% bound [7]: 54%
fraction unbound ([7]; mouse, plasma, read-out: % bound (converted)): 0.462
B:P [8]: 1.0
